In patent US10793482B2, “Compounds and compositions for delivery of nutrients and micronutrients to plants” (Spero Energy, Inc., priority 2015, dated 2020):

Columns and labels:
Type in all cases: in vivo
Petunia plants = test: Iron content in plant tissue after drench with Fe treatments (elemental analysis), Petunia; conditions: 4 ppm drench for 3 weeks; soilless media with lime, target pH 7.0
Description: (§1) In order to establish the efficacy of PP-derived chelates, we applied the PP-Cres-Asp iron chelate to two plant species known in the field to have difficulties in absorbing iron, Calibrachoa and Petunia plants. In this trial, the plants were grown in soilless media (80% peat and 20% perlite) with lime to increase the target pH to 7.0, a pH that is averse to iron uptake in plants. All plants were top dressed with a standard polymer-coated fertilizer to provide the standard nitrogen, phosphorus, and potassium nutrition along with other micro nutrients, excluding iron. Lighting was controlled for 16-hour days. There were 3 treatments of iron added (or not added) to each bucket as follows:
(§2) Treatments 1-3 were applied to the respective plants as a drench for 3 weeks. Following 3 weeks of treatment, tissue samples were gathered from each plant and subjected to elemental analysis for measurement of iron content in the plant tissue.

Calibrachoa plants = test: Iron content in plant tissue after drench with Fe treatments (elemental analysis), Calibrachoa; conditions: 4 ppm drench for 3 weeks; soilless media with lime, target pH 7.0
Description: as §1, §2

[1] = system: bell pepper plants, Capsicum annuum; test: Iron content in leaves of bell pepper plants grown hydroponically with Fe chelates (elemental analysis); conditions: for Iron content in plant leaves: leaves after week 2, finished iron solution of 4 ppm in no-iron Steiner hydroponic solution, pH 8; for Amount of iron delivered / iron content by plant tissue analyses (in words): bell pepper plants, 4 ppm iron chelate, compared with EDTA or EDDHA chelates
Description: (§3) Seven (7) identical cultivated varieties of bell pepper plants, Capsicum annuum were grown in individual five-gallon containers deep-water-culture (DWC) containers (the Root Spa bucket system by Hydrofarm) that is continuously aerated by a single oxygen line that stems from an air pump in a soilless media of rockwool surrounded by clay pebbles in a mesh tray that rests on top of the buckets. The pepper plants were grown indoors with an ambient air temperature of around 72° F. The light source came from high-pressure sodium bulbs with a light interval of 12 hours on and 12 hours off.
(§4) The pepper plants were grown with a beginning identical nutritional mix similar to that of a Steiner hydroponic solution. […] The total solution pH was raised to 8 and adjusted daily to maintain the pH at 8. Potassium hydroxide was used to increase the pH. There were 7 treatments of iron added (or not added) to each bucket as follows:
(§5) As more water was needed, the appropriate amount of no-iron Steiner solution and Fe-chelate/Fe-chelate mixture was added to maintain a finished iron solution of 4 ppm.
(§6) Leaf samples (at least two per plant) were collected at the end of the normal nutritional program (2 weeks). […] Elemental analyses of iron content in the plants leaves was carried out after week 2.

[2] = system: bell pepper plants, Capsicum annuum; test: Overall plant growth of bell pepper plants grown hydroponically with Fe chelates; conditions: 2 weeks; 4 ppm iron, Steiner hydroponic solution, pH 8; compared with Fe EDTA and Fe EDDHA
Description: as §3, §4, §5, §6

Row | Compound | Fe in plant tissue, Petunia (Petunia plants) | Fe in plant tissue, Calibrachoa (Calibrachoa plants) | Iron content in plant leaves [1] | Amount of iron delivered / iron content by plant tissue analyses (in words) [1] | Overall growth of the plants [2]
1 | Cc1ccc(O)c(CN(Cc2cc(C)ccc2O)C(CC(=O)O)C(=O)O)c1 (stereo not drawn) [PP-Cres-Asp] | 80 ppm | 56 ppm | – | – | –
2 | O=C(O)CN(CCN(CC(=O)O)CC(=O)O)CC(=O)O [Fe EDTA, ethylenediaminetetraacetic acid, reference compound] | 45 ppm | 39 ppm | 134 ppm | – | –
3 | ethylenediamine-N,N′-bis(2-hydroxyphenylacetic acid [Fe EDDHA, reference compound] | – | – | 91 ppm | – | –
4 | p-cresol iminodiacetic acid [Cres-IDA] | – | – | – | substantially greater than EDTA or EDDHA chelates | –
5 | CCCc1cc(CN(CC(=O)O)CC(=O)O)c(O)c(OC)c1 [DHE-IDA] | – | – | – | substantially greater than EDTA or EDDHA chelates | comparable to controls using conventional EDTA or EDDHA and superior to plants where only iron salts without chelate were used
